Here are results for 26 compounds from patent US8686178B2, “Derivative of 18β-glycyrrhetinic acid apt to suppress cancer cells” (Kaohsiung Medical University, priority 2011, dated 2014).

SMILES strings stand for the structures.

Data set [1] concerns NTUB1 cells. In words: Trial (F): mitochondrial membrane potential (JC-1) by flow cytometry. It is filed as cell-based, human. Conditions: 10 μM, 30 minutes, JC-1, NTUB1. As to the method:
In trial (F), mitochondrial membrane potential (MMP) in NTUB1 cells is measured according to a journal article published by Martin et al., at 2009 in PloS one, in which a dysfunction of the mitochondria caused by ROS induced MPP decrease is supposed.
Referring to TABLE 6, the NTUB1 cells at a density of 3×10^5 cells/ml are prepared and assigned into 5 groups, including F1 to F5, to incubate in 10 μM carbonyl cyanide 3-chlorophenylhydrazone (CCCP), and 10, 25 and 50 μM of 25 respectively, for 30 minutes, followed by adding 1 μM of 5,5′,6,6′-tetrachloro-1,1′,3,3′-tetraethylbenzimidaolylcarbocyanine iodide (JC-1) (Molecular Probes, Eugene, Oreg., USA) in each group. Then, the NTUB1 cells in each group are washed with PBS buffer for 3 times, collected in PBS/2% BSA, washed twice by centrifugating at 800 g, 5 minutes and resuspending in 0.3 mL PBS/2% BSA, and finally analyzed by a FACSCalibur flow cytometer (Becton Dickinson), with the FACSCalibur flow cytometer determining and calculating a ratio of JC-1 aggregates (red fluorescence) to JC-1 monomers (green fluorescence) based on levels of MMP in each group.

Data set [2] relates to human bladder cancer cell line NTUB1. Briefly: Trial (A): cytotoxic effect, IC50 by median-effect analysis. It is filed as cell-based. The conditions noted are these: NTUB1 cells; for IC50: mean ± SD; for cytotoxic effect against cancer cell: with reference to TABLE 2. The source says: For the sake of proving therapeutic effects of the derivatives of 18β-glycyrrhetinic acid of the present invention, including 10, 11, 13-17 and 21-25, in treating of cancer, human bladder cancer cell line NTUB1, human prostate cancer cell line PC3 cataloged as CRL-1435 (reference to J. Formosan Med. Assoc. 1992; 91:608-13), and immortalized normal human urothelial cells SV-HUC1 cataloged as CRL-9520 are purchased from American Type Culture Collection (ATCC; Rockville, USA) and maintained in a culturing medium respectively till at a preferable density to carry out a serial of trials (comprising trial A to G) for evaluating cytotoxicities of the derivatives of 18β-glycyrrhetinic acid against cancer cells, and mechanisms thereof.
In the present invention, the NTUB1 and the PC3 is but not limit to be maintained in RPMI 1640 medium supplemented 10% fetal bovine serum (FBS), 100 unit/mL penicillin-G, 100 μg/mL streptomycin, and 2 mM L-glutamine, yet the SV-HUC1 is maintained in F12 medium supplemented with 10% fetal bovine serum (FBS), 100 unit/mL penicillin-G, 100 μg/mL streptomycin, and 2 mM L-glutamine, culturing at 37° C. in a humidified atmosphere containing 5% CO2 till at a density of 70% per well, followed by repeatedly suspending cells in each well with an ethylene diamine tetra-acetic acid buffer (EDTA buffer; Merck) and counting cell numbers.
In the present invention, the IC50 values of each group are presented as mean±standard deviation (SD).

In data set [3] the test system is NTUB1 cells. Briefly: Trial (C): synergy with cisplatin, MTT assay. The conditions noted are these: NTUB1, 72 hours; for cytotoxic effect applied individually (FIGS. 7, 8): single agent; for synergy with cisplatin (FIGS. 7, 8): 1-50 μM compound with 5/10 μM cisplatin. It is filed as cell-based, human. As to the method:
Oncol: Semin. Orig. Invest. by maintaining the NTUB1 cells in various condition of medium (with reference to TABLE 3) at 37° C. for 72 hours, and determining cytotoxicities of each medium via MTT assay. In the trial (C), the viability rates of NTUB1 cells […] are also determined by the absorbance spectrometry at 540 nm with a MRX (DYNEXCO) microplate according to trial (B).
On the technique in general: Formazan colour is commonly taken as a measure of viable cells.

The subject of data set [4] is NTUB1 cells. In words: Trial (E): cell cycle progression by flow cytometry (propidium iodide). The arrangement: Sub-G1 / G1: unit not given here. It is filed as cell-based, human. Conditions: 50 μM, 24 hours, NTUB1. Here is the method: In order to determine a relationship between the derivatives of 18β-glycyrrhetinic acid of the present invention and cell cycle arrest, trial (E) is carried out by analyzing cell cycle progression by flow cytometry. […] After that, cell cycle progression of each group is determined respectively by incubating with 50 μg/mL propidium iodide (Sigma, Co) and 50 μg/mL RNase A (Sigma, Co) in PBS at room temperature for 30 min, and analyzing by FACScan flow cytometer and Cell Quest sofeware.
For orientation: Flow cytometry measures light scatter and fluorescence of single cells or particles in a stream.

What is called IC50 is the concentration that inhibits the measured activity by half.

Consider `N#CC(C#N)=NNc1cccc(Cl)c1` [CCCP, carbonyl cyanide 3-chlorophenylhydrazone, reference compound], for which, in data set [1], the “R1 (%)” value stood at 52.06%.

Consider `CC1(C)[C@@H](O)CC[C@]2(C)[C@H]3C(=O)C=C4[C@@H]5C[C@@](C)(C(=O)O)CC[C@]5(C)CC[C@@]4(C)[C@]3(C)CC[C@@H]12` [Compound 1, 18β-glycyrrhetinic acid], for which, in data set [2], it took 27.3 ± 5.17 µM to reach half-maximal inhibition (IC50).

Consider `CC1(C(=O)O)CCC2(C)CCC3(C)C(=CC(=O)C4C5(C)CCC(=O)C(C)(C)C5CCC43C)C2C1` (stereo not drawn) [Compound 2], for which inhibition in data set [2] was half-maximal at 18.6 ± 1.64 µM (IC50).

In the case of `COC(=O)C1(C)CCC2(C)CCC3(C)C(=CC(=O)C4C5(C)CCC(=O)C(C)(C)C5CCC43C)C2C1` (stereo not drawn) [Compound 3], in data set [2], the IC50 turned out to be 56.5 ± 14.3 µM.

In turn, `CC1(C(=O)OCc2ccccc2)CCC2(C)CCC3(C)C(=CC(=O)C4C5(C)CCC(=O)C(C)(C)C5CCC43C)C2C1` (stereo not drawn) [Compound 4] returned an IC50 in data set [2] of 20.2 ± 5.1 µM.

Compound `CC1(C(=O)O)CCC2(C)CCC3(C)C(=CC(=O)C4C5(C)CCC(=O)OC(C)(C)C5CCC43C)C2C1` (stereo not drawn) [Compound 5] yielded an IC50 in data set [2] of 73.5 ± 35.1 µM.

As for `COC(=O)C1(C)CCC2(C)CCC3(C)C(=CC(=O)C4C5(C)CCC(=O)OC(C)(C)C5CCC43C)C2C1` (stereo not drawn) [Compound 6], the IC50 in data set [2] amounted to 24.3 ± 3.98 µM.

`CC1(C(=O)OCc2ccccc2)CCC2(C)CCC3(C)C(=CC(=O)C4C5(C)CCC(=O)OC(C)(C)C5CCC43C)C2C1` (stereo not drawn) [Compound 7] returned an IC50 in data set [2] of 57.6 ± 8.8 µM.

Take `C=C(C)[C@@H]1CC[C@]2(C)[C@H](C(=O)C=C3[C@@H]4C[C@@](C)(C(=O)OC)CC[C@]4(C)CC[C@]32C)[C@@]1(C)CCC(=O)O` [Compound 8]: in data set [2], inhibition was half-maximal at 20.7 ± 4.97 µM (IC50).

As to `C=C(C)[C@@H]1CC[C@]2(C)[C@H](C(=O)C=C3[C@@H]4C[C@@](C)(C(=O)OCc5ccccc5)CC[C@]4(C)CC[C@]32C)[C@@]1(C)CCC(=O)O` [Compound 9], in data set [2], the “cytotoxic effect against cancer cell” value was “significantly suppress the growth of cancer cells with a lower concentrate” and the IC50 was determined as 2.34 ± 0.28 µM.

With `C=C(C)C1CCC2(C)C(C(=O)C=C3C4CC(C)(C(=O)OC)CCC4(C)CCC32C)C1(C)CCC(=O)OC(C)C` (stereo not drawn) [Compound 10, 3,4-seco-11-oxo-18β-olean-4(23),12-dien-3,30-dioic acid 3-isopropyl 30-methyl, ester], the IC50 in data set [2] came out at 25.3 ± 2.28 µM.

`C=C(C)[C@@H]1CC[C@]2(C)[C@H](C(=O)C=C3[C@@H]4C[C@@](C)(C(=O)OC)CC[C@]4(C)CC[C@]32C)[C@@]1(C)CCC(=O)NC(C)C` [Compound 11, 3-isopropyl carbamoyl-11-oxo-18β-3,4-seco-olean-4(23),12-dien 30-methyl ester] returned an IC50 in data set [2] of 31.4 ± 0.55 µM.

`C=C(C)[C@@H]1CC[C@]2(C)[C@H](C(=O)C=C3[C@@H]4C[C@@](C)(C(=O)OCc5ccccc5)CC[C@]4(C)CC[C@]32C)[C@@]1(C)CCC(=O)OC` [Compound 12, 3,4-seco-11-oxo-18β-olean-4(23), 12-dien-3,30-dioic acid 3-methyl-30-benzyl ester]: in data set [2], the “cytotoxic effect against cancer cell” value is listed as “significantly suppress the growth of cancer cells with a lower concentrate” and the IC50 stood at 9.41 ± 2.72 µM. Moreover, in data set [3], the “cytotoxic effect applied individually (FIGS. 7, 8)” value is listed as “cytotoxic effects against to cancer cells” and the “synergy with cisplatin (FIGS. 7, 8)” value is reported as “dramatic synergy”.

On to `C=C(C)C1CCC2(C)C(C(=O)C=C3C4CC(C)(C(=O)OCc5ccccc5)CCC4(C)CCC32C)C1(C)CCC(=O)OCC` (stereo not drawn) [Compound 13, 3,4-seco-11-oxo-18β-olean-4(23),12-dien-3,30-dioic acid 3-ethyl,30-benzyl ester], for which, in data set [2], the IC50 is 27.8 ± 6.48 µM.

In the case of `C=C(C)C1CCC2(C)C(C(=O)C=C3C4CC(C)(C(=O)OCc5ccccc5)CCC4(C)CCC32C)C1(C)CCC(=O)OC(C)C` (stereo not drawn) [Compound 14, 3,4-seco-11-oxo-18β-olean-4(23),12-dien-3,30. dioic acid 3-isopropyl-30-benzyl ester], in data set [2], the midpoint of inhibition, the IC50, lay at 18.2 ± 1.58 µM.

With `C=C(C)[C@@H]1CC[C@]2(C)[C@H](C(=O)C=C3[C@@H]4C[C@@](C)(C(=O)OCc5ccccc5)CC[C@]4(C)CC[C@]32C)[C@@]1(C)CCC(=O)NCC` [Compound 15, 3-ethyl carbamoyl-11-oxo-18β-3,4-seco-olean-4(23),12-dien-30-benzyl ester], the midpoint of inhibition in data set [2], the IC50, lay at 42.7 ± 11.2 µM.

As to `C=C(C)[C@@H]1CC[C@]2(C)[C@H](C(=O)C=C3[C@@H]4C[C@@](C)(C(=O)OCc5ccccc5)CC[C@]4(C)CC[C@]32C)[C@@]1(C)CCC(=O)NCCC` [Compound 16, 3-propylcarbamoyl-11-oxo-18β-3,4-seco-olean-4(23),12-dien 30-benzyl ester], inhibition in data set [2] was half-maximal at 49.4 ± 11.5 µM (IC50).

Regarding `C=C(C)[C@@H]1CC[C@]2(C)[C@H](C(=O)C=C3[C@@H]4C[C@@](C)(C(=O)OCc5ccccc5)CC[C@]4(C)CC[C@]32C)[C@@]1(C)CCC(=O)NC(C)C` [Compound 17, 3-isopropylcarbamoyl-11-oxo-18β-3,4-seco-olean-4(23), 12-dien 30-benzyl ester], 30.1 ± 2.41 µM corresponded to half-maximal inhibition in data set [2] (IC50).

For the compound `CC(C)NC(=O)C1(C)CCC2(C)CCC3(C)C(=CC(=O)C4C5(C)CCC(=O)OC(C)(C)C5CCC43C)C2C1` (stereo not drawn) [Compound 18], the IC50 in data set [2] amounted to 25.7 ± 1.81 µM.

On to `C=C(C)[C@@H]1CC[C@]2(C)[C@H](C(=O)C=C3[C@@H]4C[C@@](C)(C(=O)NC(C)C)CC[C@]4(C)CC[C@]32C)[C@@]1(C)CCC(=O)O` [Compound 19], for which, in data set [2], the IC50 worked out at 17.5 ± 2.11 µM.

As to `C=C(C)[C@@H]1CC[C@]2(C)[C@H](C(=O)C=C3[C@@H]4C[C@@](C)(C(=O)NC(C)C)CC[C@]4(C)CC[C@]32C)[C@@]1(C)CCC(=O)OC` [Compound 20, 30-Isopropylcarbamoyl-11-oxo-18β-3,4-seco-olean-4(23),12-diene 3-methyl ester], in data set [2], half-maximal inhibition (IC50) required 13.1 ± 5.27 µM. Moreover, in data set [3], the “cytotoxic effect applied individually (FIGS. 7, 8)” value was “cytotoxic effects against to cancer cells” and the “synergy with cisplatin (FIGS. 7, 8)” value was “dramatic synergy”.

The compound `C=C(C)[C@@H]1CC[C@]2(C)[C@H](C(=O)C=C3[C@@H]4C[C@@](C)(C(=O)NC(C)C)CC[C@]4(C)CC[C@]32C)[C@@]1(C)CCC(=O)OC(C)C` [Compound 22, 30-isopropyl carbamoyl-11-oxo-18β-3,4-seco-olean-4(23),12-dien 3-isopropyl ester] showed an IC50 in data set [2] of 29.2 ± 26.6 µM.

As for `C=C(C)[C@@H]1CC[C@]2(C)[C@H](C(=O)C=C3[C@@H]4C[C@@](C)(C(=O)NC(C)C)CC[C@]4(C)CC[C@]32C)[C@@]1(C)CCC(=O)NCCC` [Compound 24, 30-isopropyl carbamoyl-11-oxo-18β-3,4-seco-olean-4(23), 12-dien 3-propyl carbamate], the IC50 in data set [2] is over 50 µM.

Regarding `CC1(C(=O)Nc2ccccc2)CCC2(C)CCC3(C)C(=CC(=O)C4C5(C)CCC(=O)OC(C)(C)C5CCC43C)C2C1` (stereo not drawn) [Compound 26], it took 16 ± 5.3 µM to reach half-maximal inhibition in data set [2] (IC50).

As to `C=C(C)[C@@H]1CC[C@]2(C)[C@H](C(=O)C=C3[C@@H]4C[C@@](C)(C(=O)Nc5ccccc5)CC[C@]4(C)CC[C@]32C)[C@@]1(C)CCC(=O)O` [Compound 27], in data set [2], the “cytotoxic effect against cancer cell” value was “significantly suppress the growth of cancer cells with a lower concentrate” and the IC50 was 3.31 ± 0.61 µM.

Regarding `OO` [Compound H2O2, H2O2, reference compound], in data set [4], the G1 was 27.15, the G2/M is on record as 20.18, the S stood at 23.84 and the Sub-G1 worked out at 9.48.
